target: Tubulin (Bos taurus, UniProt Q6B856+Q862L2+Q862F3); assay: Compound was evaluated for inhibition of tubulin polymerization using purified bovine brain tubulin, activity expressed as IC50; assay type: functional, tissue-based

Compound	IC50 [µM]
C[C@]12CC[C@@H]3c4cc(O)c(=O)ccc4CC[C@H]3[C@@H]1CC[C@@H]2O	14.9
C/N=c1/cc2c(ccc1O)[C@H]1CC[C@]3(C)[C@@H](O)CC[C@H]3[C@@H]1CC2	19.4
CN(C)c1ccc2c(cc1=O)CC[C@@H]1[C@@H]2CC[C@]2(C)[C@@H](O)CC[C@@H]12	14.3
C[C@]12CC[C@@H]3c4ccc(=O)c(N)cc4CC[C@H]3[C@@H]1CC[C@@H]2O	9.2
C[C@]12CC[C@@H]3c4ccc(=N)c(O)cc4CC[C@H]3[C@@H]1CC[C@@H]2O	14.4
C/N=c1\ccc2c(cc1O)CC[C@@H]1[C@@H]2CC[C@]2(C)[C@@H](O)CC[C@@H]12	60.7
CN(C)c1cc2c(ccc1=O)[C@H]1CC[C@]3(C)[C@@H](O)CC[C@H]3[C@@H]1CC2	46.8
C[C@]12CC[C@@H]3c4ccc([N+](=O)[O-])c(=O)cc4CC[C@H]3[C@@H]1CC[C@@H]2O	52
C[C@]12CC[C@@H]3c4cc(N)c(=O)ccc4CC[C@H]3[C@@H]1CC[C@@H]2O	16.5
C[C@]12CC[C@@H]3c4ccc(=O)c(O)cc4CC[C@H]3[C@@H]1CC[C@@H]2O	22.8
C=Cc1ccc2c(cc1=O)CC[C@@H]1[C@@H]2CC[C@]2(C)[C@@H](O)CC[C@@H]12	14.2

From ChEMBL document CHEMBL1130483, “The synthesis and evaluation of functionalized estratropones: Potent inhibitors of tubulin polymerization” (Bioorg Med Chem Lett, 1997)
